Source: patent publication US20050233453A1, “6-O-sulfated N-acetylheparosan and hematopoietic stem cell growth auxiliary agent” (SEIKAGAKU CORPORATION, priority 2004, published 2005)

Tested on: plasma
Assay: Measurement of activated partial thromboplastin time (APTT)
Details: test substance concentration of 100 μg/ml, rat plasma
Procedure: Hundred μl of plasma obtained by centrifuging at 1000×g for 10 minutes blood sampled from descending aorta of a rat with 1/10 volume of 3.2% […] and 100 μl of a different concentration of N-desulfated-N-reacetylated heparin or each 6-O-sulfated-N-acetylheparosan (Fraction I derived from Reaction-A, Fraction II derived from Reaction-A, and Reaction-B Product) were placed in a cup for measurement and the whole was kept at 37° C. for 1 minute. Thereafter, 100 μl of Actin (trade name: Mitsubishi Pharma Corporation) kept at 37° C. beforehand was added thereto, followed by maintenance at the temperature for 2 minutes. Then, 100 μl of a 0.02M calcium chloride solution kept at 37° C. was added and a time required for the occurrence of coagulation from this point was measured by means of an automatic blood coagulation-measuring apparatus (KC-10A; manufactured by Amelung).

“N-desulfated-N-reacetylated heparin [reference compound]” gave an APTT of at least 80 s.
